Results: patent US20040024543A1, “Methods and systems for analyzing complex biological systems” (priority 2001, published 2004)

Legend:
Arabidopsis thaliana [1] = experiment: SOA1 phenotypic analysis of herbicide-treated Arabidopsis (MIC, Tmic, leaf traits); assay type: in vivo
Magnaporthe grisea = assay type: cell-based; settings: in the presence of the compound
Arabidopsis thaliana [2] = experiment: MOA1 gene expression profiling (22,000 gene arrays) of sprayed Arabidopsis; settings: regulated genes at 1 hr compared with internal list of essential genes
Arabidopsis thaliana [3] = experiment: MOA1 biochemical (metabolite) profiling by LC-MS and GC-MS of sprayed Arabidopsis; settings: MOA1, 20 min and 1 hour after spraying
[4] = test system: Saccharomyces cerevisiae wild type strain BY4743; experiment: AF1 yeast gene expression analysis (microarray) after antifungal drug treatment; assay type: cell-based; settings: 2×MIC, two hours
Protocol: Saccharomyces cerevisiae wild type strain BY4743 was purchased from American Type Culture Center (ATCC, Manassas, Va.). The yeast strain was grown in YPD or SD media. […] The cultures started from fresh single colonies were grown in 1.0 ml YPD overnight at 30° C. […] The OD600 was adjusted to 1.0 with YPD media, then 2.0 ml of each was inoculated into three 250 ml flasks, each containing 50 ml of SD media. […] The cells were kept growing for another two hours, then collected by centrifugation at 4000 rpm for 5 minutes at 4° C. Pellets were washed once with ice-cold water, then were lyophilized overnight at 4° C. […] Tubes were vortexed for 30 seconds, then incubated for 10 minutes at room temperature (RT). […] Tubes were incubated for 10 minutes at RT. Samples were centrifuged for 20 minutes as before. Pellets were washed with 400 μl 70% ethanol and centrifuged for 10 minutes as before. The pellet was then dissolved in 100 μl nuclease-free water. RNA quality was determined using the Bioanalyzer 2100 and the RNA 6000 assay (Agilent Technologies, Palo Alto, Calif.) according to manufacturer's instructions. RNA concentrations were determined spectrophotometrically by measuring the absorption at 260 nm in an Ultrospec 2000 (Pharmacia Biotech, Piscataway, N.J.). […] Labeled cRNAs were evaluated using the RNA 6000 assay on the Agilent Bioanalyzer 2100. Labeled cRNA concentrations were determined spectrophotometrically by measuring the absorption at 260 nm in an Ultrospec 2000 (Pharmacia Biotech, Piscataway, N.J.). […] Each pair of samples to be hybridized were independently labeled and hybridized utilizing a fluor reversal for a total of two hybridizations per sample pair. […] Each feature was determined from an array's associated pattern file and a detection algorithm. Intensity values for each feature were determined after subtracting background derived from an average of negative control features. […] Data was evaluated after combining results from fluor reversal replicate hybridizations. […]

SMILES	characteristic morphological symptoms (Arabidopsis thaliana [1]; SOA1, in words)	tMic (Dev.) (Arabidopsis thaliana [1]; SOA1, coded score of time to full range of symptoms at MIC)	nitrogen source utilization of M. grisea (Magnaporthe grisea)	No. of Lethal Genes Altered (Arabidopsis thaliana [2])	stress-related (commonly regulated) metabolites (Arabidopsis thaliana [3])	# Transripts perturbed by treatment ([4]; P < 0.05)	# Transripts perturbed by treatment ([4]; P < 0.1)
CP(=O)(O)CCC(N)C(=O)O (centres unmarked) [Glufosinate]	Chlorosis and leaf curling	1	only able to utilize glutamine and glutamate as nitrogen sources	10	Only a few, if any		
C[C@@H]1[C@H](O)[C@@H](C)/C=C/C=C/C=C/C=C/C=C/C=C/C=C/[C@H](O[C@@H]2O[C@H](C)[C@@H](O)[C@H](N)[C@@H]2O)C[C@@H]2O[C@](O)(C[C@@H](O)C[C@@H](O)[C@H](O)CC[C@@H](O)C[C@@H](O)CC(=O)O[C@H]1C)C[C@H](O)[C@H]2C(=O)O [Amphoteracin B]						4363	4652
CC[C@@H]([C@H](C)O)n1ncn(-c2ccc(N3CCN(c4ccc(OC[C@@H]5CO[C@@](Cn6cncn6)(c6ccc(F)cc6F)C5)cc4)CC3)cc2)c1=O [Posaconazole]						690	
